The results in this text go back to patent US11260070B2, “Methods of treating feline coronavirus infections” (GILEAD SCIENCES, INC., priority 2017, dated 2022).

Read-outs that look alike come from different tables or passages of the source.

The test system of one series is feline coronavirus. The series can be described thus: In vitro antiviral assay: virus-induced cytopathic effect in CRFK cells (crystal violet staining). The series is classed as cell-based. As to the method:
Compound 1 was screened for activity against feline Coronaviruses in an in vitro assay. Serial dilutions of Compound 1 were mixed with 2.5×10^4 copies of feline coronavirus and added in sextuplicate to 96 well plates with pre-seeded CRFK cells. The plates were incubated for 72 hours followed by a staining of the cell culture monolayers with crystal violet. The level of virus-induced cytopathic effect was quantified visually and using a plate reader. Positive control wells comprised the virus without Compound 1. Negative control wells lacked both virus and Compound 1. The EC50 was calculated by regression analysis.
Background: Damage to the host cells serves as the signal in cytopathic effect assays.

The nature of series [1]: CellTox Green Cytotoxicity Assay in uninfected CRFK cells. The series is classed as cell-based. As to conditions: cat (feline), 72 hour incubation. As to the method:
Compound 1 was screened for cytotoxicity in uninfected CRFK cells using a commercially available CellTox Green Cytotoxicity Assay (Promega). The assayed was performed in a 96 well place formate using serial dilution of Compound 1 in sextuplicate. Compound concentration associated with 50% cytotoxicity (CC50) following 72 hour incubation was calculated by regression analysis.

In the case of `N#C[C@@]1(c2ccc3c(N)ncnn23)O[C@H](CO)[C@@H](O)[C@H]1O` [Compound 1, (2R,3R,4S,5R)-2-(4-aminopyrrolo[2,1-f][1,2,4]triazin-7-yl)-3,4-dihydroxy-5-(hydroxymethyl)tetrahydrofuran-2-carbonitrile], the EC50 (commonly the concentration giving half of the maximal effect) amounted to 0.75 µM in the series on feline coronavirus (Alphacoronavirus 1, CRFK, read-out: EC50 (FIG. 1 legend)) and 0.77 µM with feline coronavirus (Alphacoronavirus 1, feline coronavirus in CRFK cells, 72 hours incubation, regression analysis (Table 1), read-out: EC50). In the series with feline coronavirus (CRFK cells, at 3, 2 and 1 μM, FIG. 1), the “inhibition of feline coronavirus” value was around 100%. Moreover, the cytotoxic concentration (CC50) (as a rule, the concentration that lowers cell viability or growth by half) at 72 h in series [1] was above 100 µM.
